From patent US6514968B1, “Aminoalkoxy carbazoles for the treatment of cns diseases” (Pharmacia & Upjohn Company, priority 1999, dated 2003)
Where a name gives a salt, the structure may show the parent alone.

How the values were obtained:
[1] = target: T1, cloned human 5-HT6 receptor (Homo sapiens, UniProt P50406); experiment: 5-HT6 Receptor Binding Assay; details: [3H]-lysergic acid diethylamide (LSD) radioligand, membranes of Hela cells containing the cloned human 5-HT6 receptor, SPA beads; estimated IC50 converted to Ki by Cheng-Prusoff
T1 construct: host or cells: HeLa cells (G-418 selection), membrane preparation
Experimental: 5-HT6 Receptor Binding Assay
Growth of Cells and Membrane Preparation
Hela cells containing the cloned human 5-HT6 receptor were acquired from Dr. David R. Sibley's laboratory in National Institute of Health (see Sibley, D. R., J. Neurochemistry, 66, 47-56, 1996). Cells were grown in high glucose Dulbecco's modified Eagle's medium, supplemented with L-glutamine, 0.5% sodium pyruvate, 0.3% penicillin-streptomycin, 0.025% G-418 and 5% Gibco fetal bovine serum and then were harvested, when confluent, in cold phosphate-buffered saline.
Harvested intact cells were washed once in cold phosphate-buffered saline. The cells were pelleted and resuspended in 100 ml of cold 50 mM Tris, 5 mM EDTA and 5 mM EGTA, pH 7.4. Homogenization was with a Vir Tishear generator, 4 cycles for 30 seconds each at setting 50. The homogenized cells were centrifuged at 700 RPM (1000×g) for 10 minutes and the supernatant was removed. The pellet was resuspended in 100 ml of the above buffer and rehomogenized for 2 cycles. The rehomogenized cells were then centrifuged at 700 RPM (1000×g) for 10 minutes and the supernatant was removed. The combined supernatant (200ml) was centrifuged at 23,000 RPM (80,000×g) for 1 hour in a Beckman Rotor (42.1 Ti). The membrane pellet was resupended in 50-8-ml of assay buffer containing HEPES 20 mM, MgCl2 10 mM, NaCl 150 mM, EDTA 1 mM, pH 7.4 and stored frozen in aliqouts at −70° C.
The radioligand binding assay used [^3H]-lysergic acid diethylamide (LSD). The assay was carried out in Wallac 96-well sample plates by the addition of 11 μl of the test sample at the appropriate dilution (the assay employed 11 serial concentrations of samples run in duplicate), 11 μl of radioligand, and 178 μl of a washed mixture of WGA-coated SPA beads and membranes in binding buffer. The plates were shaken for about 5 minutes and then incubated at room temperature for 1 hour. The plates were then loaded into counting cassettes and counted in a Wallac MicroBeta Trilux scintillation counter.
Binding Constant (Ki) Determination
Eleven serial dilutions of test compounds were distributed to assay plates using the PE/Cetus Pro/Pette pipetter. These dilutions were, followed by radioligand and the bead-membrane mixture prepared as described above. The specifically bound cpm obtained were fit to a one-site binding model using GraphPad Prism ver. 2.0. Estimated IC50 values were converted to Ki values using the Cheng-Prusoff equation (Cheng, Y. C. et al., Biochem. Pharmacol., 22, 3099-108, 1973).

T1 sequence (P50406 whole entry): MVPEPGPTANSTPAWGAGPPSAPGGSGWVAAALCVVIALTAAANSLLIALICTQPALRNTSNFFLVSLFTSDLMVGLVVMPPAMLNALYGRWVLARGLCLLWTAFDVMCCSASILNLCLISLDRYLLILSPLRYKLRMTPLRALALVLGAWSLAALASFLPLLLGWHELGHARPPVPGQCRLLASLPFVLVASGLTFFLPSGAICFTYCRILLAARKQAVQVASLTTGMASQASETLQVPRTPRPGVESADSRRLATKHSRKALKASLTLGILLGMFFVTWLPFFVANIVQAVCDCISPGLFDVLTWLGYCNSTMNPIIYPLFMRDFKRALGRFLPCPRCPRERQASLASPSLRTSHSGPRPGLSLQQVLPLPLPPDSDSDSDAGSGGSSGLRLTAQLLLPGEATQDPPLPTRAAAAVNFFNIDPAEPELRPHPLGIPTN

Row | Structure (SMILES) | melting point | Ki [1]
1 | CNCCOc1cccc2c1c1ccccc1n2Cc1ccccc1.O=C(O)/C=C\C(=O)O [Example 34, N-{2-[(9-Benzyl-9H-carbazol-4-yl)oxy]ethyl}-N-methylamine] | 182.5 to 184.5 °C | 0.0057 µM
2 | CCN(CC)CCOc1cccc2c1c1cccc(Cl)c1n2Cc1ccc(F)cc1 [Example 3, N-(2-{[8-Chloro-9-(4-fluorobenzyl)-9H-carbazol-4-yl]oxy}ethyl)-N,N-diethylamine] | 104.5 to 105.5 °C | 0.022 µM
3 | CCN(CC)CCOc1cccc2c1c1cccc(F)c1n2Cc1ccccc1 [Example 7, N-{2-[(9-Benzyl-8-fluoro-9H-carbazol-4-yl)oxy]ethyl}-N,N-diethylamine] | 60 to 60.5 °C | 0.0026 µM
4 | CCN(CC)CCOc1cccc2c1c1ccccc1n2Cc1ccccc1 [Example 1, N-{2-[(9-Benzyl-9H-carbazol-4-yl)oxy]ethyl}-N,N-diethylamine] | 79 to 80.5 °C | 0.024 µM
5 | COCCNCCOc1cccc2c1c1ccccc1n2Cc1ccccc1.O=C(O)/C=C\C(=O)O [Example 36, N-{2-[(9-Benzyl-9H-carbazol-4-yl)oxy]ethyl}-N-(2-methoxyethyl)amine] | 175 to 175.5 °C | 0.016 µM
6 | O=CNCCOc1cccc2c1c1ccccc1n2Cc1ccccc1 [Example 33, N-{2-[(9-benzyl-9H-carbazol-4-yl)oxy]ethyl}formamide] | 161 to 162 °C | 0.211 µM
7 | CCN(CC)CCOc1cccc2c1c1cccc(Cl)c1n2Cc1ccccc1 [Example 2, N-{2-[(9-Benzyl-8-chloro-9H-carbazol-4-yl)oxy]ethyl}-N,N-diethylamine] | 73.5 to 75 °C | 0.006 µM
8 | c1ccc(Cn2c3ccccc3c3c(OCCNCCN4CCOCC4)cccc32)cc1 [Example 20, 2-[(9-benzyl-9H-carbazol-4-yl)oxy]-N-[2-(4-morpholinyl)ethyl]-1-ethanamine] |  | 0.037 µM
9 | c1ccc(CN2CCC(NCCOc3cccc4c3c3ccccc3n4Cc3ccccc3)CC2)cc1 [Example 16, 1-benzyl-N-{2-[(9-benzyl-9H-carbazol-4-yl)oxy]ethyl}-4-piperidinamine] |  | 0.148 µM

Next, values leading:

Row | melting point | Ki [1] | Structure (SMILES)
10 | 113.5 to 114.5 °C | 0.012 µM | c1ccc(Cn2c3ccccc3c3c(OCCN4CCCCC4)cccc32)cc1 [Example 39, 9-Benzyl-4-[2-(1-piperidinyl)ethoxy]-9H-carbazole]
11 | 228.5 to 229 °C |  | Cc1nc(Cn2c3ccccc3c3c(OCCN)cccc32)cs1 (as salt: methane sulfonate) [Example 51, 2-({9-[(2-Methyl-1,3-thiazol-4-yl)methyl]-9H-carbazol-4-yl}oxy)ethylamine]
12 | 68 to 69 °C | 0.18 µM | CCN(CC)CCOc1cccc2c1c1cc(F)ccc1n2Cc1ccccc1 [Example 44, N-{2-[(9-Benzyl-6-fluoro-9H-carbazol-4-yl)oxy]ethyl}-N,N-diethylamine]
13 | 96 to 96.75 °C | 0.0022 µM | CNCCOc1cccc2c1c1cc(C)ccc1n2Cc1ccccc1 [Example 47, N-{2-[(9-Benzyl-6-methyl-9H-carbazol-4-yl)oxy]ethyl}-N-methylamine]
14 | 59 to 60 °C | 0.02 µM | CCN(CC)CCOc1cccc2c1c1cccc(F)c1n2Cc1ccc(F)cc1 [Example 42, N,N-Diethyl-N-(2-{[8-fluoro-9-(4-fluorobenzyl)-9H-carbazol-4-yl]oxy}ethyl)amine]
15 | 122.25 to 123 °C | 0.0024 µM | NCCOc1cccc2c1c1cccc(F)c1n2Cc1ccccc1 [Example 41, 2-[(9-Benzyl-8-fluoro-9H-carbazol-4-yl)oxy]ethylamine]
16 | 96 to 97.5 °C | 0.182 µM | CCN(CC)CCOc1cccc2c1c1cc(Cl)ccc1n2Cc1ccccc1 [Example 43, N-{2-[(9-Benzyl-6-chloro-9H-carbazol-4-yl)oxy]ethyl}-N,N-diethylamine]
17 | 160 °C | 0.0045 µM | O=C(O)/C=C\C(=O)O.OCCNCCOc1cccc2c1c1ccccc1n2Cc1ccccc1 [Example 49, 2-({2-[(9-benzyl-9H-carbazol-4-yl)oxy]ethyl}amino)-1-ethanol]
18 | 187.5 to 188 °C | 0.0061 µM | Cc1ccc2c(c1)c1c(OCCN)cccc1n2Cc1ccccc1.O=C(O)/C=C\C(=O)O [Example 46, 2-[(9-Benzyl-6-methyl-9H-carbazol-4-yl)oxy]ethylamine]
19 | > 256 °C |  | NCCOc1cccc2c1c1ccccc1n2Cc1csc2ccc(Cl)cc12 (as salt: methane sulfonate) [Example 50, 2-({9-[(5-Chloro-1-benzothiophen-3-yl)methyl]-9H-carbazol-4-yl}oxy)ethylamine]
